In patent US6344471B1 (priority 1998, dated 2002):

Assays:
[1] = biological target: high-affinity DFP binding site; design: species or system rat
acetylcholinesterase = acetylcholinesterase (Rattus norvegicus, UniProt P37136); assay: biochemical
[2] = system: rats having a lesion of the entorhinal cortex; conditions: rat, in vivo, ip
young adult rats = conditions: rat, in vivo; cited from earlier work

acetylcholinesterase, sequence (P37136 32-614): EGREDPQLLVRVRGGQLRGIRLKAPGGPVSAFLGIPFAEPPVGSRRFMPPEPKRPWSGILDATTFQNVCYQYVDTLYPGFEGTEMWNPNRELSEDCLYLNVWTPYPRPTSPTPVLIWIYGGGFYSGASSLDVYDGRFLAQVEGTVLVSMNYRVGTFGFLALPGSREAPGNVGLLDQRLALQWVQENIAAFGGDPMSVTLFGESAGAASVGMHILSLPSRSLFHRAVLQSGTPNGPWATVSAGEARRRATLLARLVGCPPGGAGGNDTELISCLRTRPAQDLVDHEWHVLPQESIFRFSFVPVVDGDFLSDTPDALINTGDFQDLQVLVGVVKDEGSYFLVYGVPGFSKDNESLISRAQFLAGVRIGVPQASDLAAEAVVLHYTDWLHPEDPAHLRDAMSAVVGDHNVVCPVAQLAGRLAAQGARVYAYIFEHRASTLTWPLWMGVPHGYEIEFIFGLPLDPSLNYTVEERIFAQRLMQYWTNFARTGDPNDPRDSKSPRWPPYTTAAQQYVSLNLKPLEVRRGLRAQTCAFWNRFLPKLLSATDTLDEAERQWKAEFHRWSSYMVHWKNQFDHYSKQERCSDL

CCCc1c(CC)c(=O)on1C(=O)N1CCCC1 [Example 1, 4-Ethyl-3-propyl-2-(1-pyrrolidinylcarbonyl)-5(2H)-isoxazolone]
IC50 ([1]; read-out: IC50, inhibition of binding of [3H]DFP to the high-affinity binding site): 4.8 nM
Ki (acetylcholinesterase): > 10000 nM
selectivity (DFP binding site vs acetylcholinesterase) (acetylcholinesterase): > 2000
antagonism of the learning weakness induced by lesion of the entorhinal cortex [2]: not capable of antagonizing the learning weakness
learning of the platform position [2]: sped up learning of the platform position considerably
performance level on the second day of training [2]: same performance level as the vehicle-treated animals after 5 days of training

COP(=O)(OC)OC=C(Cl)Cl [dichlorvos, reference compound]
binding/affinity to the high-affinity DFP binding site ([3H]DFP competition in vitro) [1]: binds

Nc1c2c(nc3ccccc13)CCCC2 [tacrine]
improvement of cognitive learning ability (young adult rats): no improvement
